Measured values taken from patent publication US9107954B2, “Bivalent ligands for the treatment of neurological disorders” (Virginia Commonwealth University, priority 2012, dated 2015).
Read-outs that look alike come from different tables or passages of the source.

Key:
[1] = tested on: fusion of CCR5-MOR CHO target cells (CD4) with HEK effector cells (HIV-1 gp140); assay type: cell-based; conditions: for effect on cell fusion: 1 at 3000 nM, 2 at 10000 nM, maraviroc at 100 nM
[2] = tested on: R5-tropic HIV-1SF162 in primary human astrocytes; test: HIV-1SF162 infectivity, Tat luciferase reporter assay in primary human astrocytes; assay type: cell-based; conditions: for effect on viral entry / Tat production, Example 4 / effect on virus invasion (Tat expression), Example 3: MVC 100 nM; for effect on viral entry / Tat production, Example 4: NTX 1.5 μM, 18 h; for effect on virus invasion (Tat expression), Example 3: NTX 1500 nM, naltrexone groups with and without morphine
Method: Primary human astrocytes (ScienCell catalog #1901) were cultured in 24-well plates and transfected with the plasmid pBlue3′LTR-luc (NIH AIDS Research and Reference Reagent Program) using Lipofectamine 2000 (Invitrogen) followed by infection with HIV-1. After 18-20 h cells were rinsed twice in 1×PBS then lysed in Cell Culture Lysis Reagent (Promega) and relative Tat protein expression was determined by measuring luciferase activity using the Luciferase Assay System (Promega; catalog # E1500). Light units were measured using a PHERAstar FS plate reader (BMG Labtech).
Primary human astroglial cells were infected by incubation with the neurotropic HIV-1 strain SF162. A concentration of HIV-1 p24 50 pg/10^6 cells was used, and a no virus condition served as a negative control. Viral stocks were quantified by assaying for HIV-1 p24 (Alliance p24 Antigen ELISA Kit; Advanced Bioscience, Kensington, Md.).
HIV-1SF162 infectivity of human astroglia was determined based on the relative amount of Tat protein expressed by the virus using a luciferase-based reporter assay. Reporters under the control of the long terminal repeat (LTR) viral promoter are a robust means of measuring HIV-1 infection, since the LTR is activated by HIV-1 Tat, which is only expressed by infected cells.
As the bivalent ligand 1 has been designed as a molecular probe to study the underlying mechanisms of opioid-enhanced NeuroAIDS by targeting the MOR-CCR5 heterodimerization, a luciferase-based HIV-1SF162) infection assay measuring the relative transactivator of transcription (Tat) protein expression in human astrocytes was performed (FIG. 15). Tat is encoded by HIV-1 and is the first protein to be produced after HIV-1 infection. Thus, Tat expression level is directly proportioned to the extent of HIV-1 invasion. Astrocytes were chosen based on the following facts: first, astrocytes express both the MOR and the CCR5. Second, the human blood-brain barrier (BBB) is composed of interacting adjacent cerebral endothelial cells (CECs) and astrocytes, which makes astrocytes a readily accessible target during the course of HIV infection. Thirdly, during NeuroAIDS development astroglia are important cellular sites within the CNS where opioids synergistically potentiate the pathophysiological effects of HIV-1 infection.

human astrocytes = test: Cytotoxicity assay, AOPI live/dead labeling of human astrocytes; assay type: cell-based
Method: Cell viability was assessed by measurement of both live and dead cells using dual (green/red) fluorescence labeling with AOPI analyzed with Cellometer Vision CBA (Nexcelom Bioscience LLC).
To determine whether HIV-1±morphine exposure affected astrocyte viability in the presence or absence of MVC or the bivalent compound, a cell death assay was performed at 24 h after treatment.

CCR5 [3] = biological target: CCR5 (Homo sapiens (Human), UniProt P51681); test: Calcium mobilization assay, CCR5-MOR CHO co-expressed cell line (Gqi5), RANTES-stimulated; assay type: cell-based
Method: (§1) Having a cell line that consistently expresses both CCR5 and MOR was essential for studying how the two receptors interact with each other using calcium mobilization assays and cell fusion assays. A previously established MOR Chinese hamster ovarian (CHO) cell line was transfected with a plasmid containing CCR5 tagged with a yellow fluorescent protein on its N-terminus (CCR5-YFP). ^1 After 48 hours cells were sorted based upon the presence of the yellow fluorescent protein tag using a flow cytometer. Cells containing the tagged receptors were then cultured and used in the subsequent assays.
(§2) Calcium mobilization is directly related to G protein-coupled receptor (GPCR) activation and therefore is a useful technique to study the functional activity of new ligands.

MOR [4] = biological target: T1, MOR (Homo sapiens (Human), UniProt P35372); test: Calcium mobilization assay, CCR5-MOR CHO co-expressed cell line (Gqi5), DAMGO-stimulated; assay type: cell-based; conditions: cells stimulated with DAMGO; read-out: MOR IC50
Method: as §1, §2

MOR [5] = biological target: T1, MOR; test: DAMGO-stimulated Ca2+ flux assay in hMOR-CHO cells transfected with Gqi5; assay type: cell-based
mu opioid receptor (MOR) = mu opioid receptor (MOR) (Homo sapiens (Human), UniProt P35372); test: MOR competitive radioligand binding, [3H]naloxone, hMOR-expressed CHO cells
Method: MOR/CHO cell culture and membrane homogenate preparation followed literature report^52.
Saturation binding was performed by incubating membranes for 90 minutes at 30° C. with 0.5-15 nM [^3H]naloxone in assay buffer in a 0.5 mL volume. […] The reaction was terminated by rapid filtration through Whatman GF/B glass fiber filters, followed by 3 washes with 3 mL ice-cold Tris buffer. Bound radioactivity will be determined by liquid scintillation spectrophotometry at 45% efficiency for [^3H].
For competition binding assay (agonists or antagonists), Hill plots linear regression analysis and the Cheng-Prusoff equation were applied to determine the IC50 and Ki values. In [^35S]GTPγS binding assays, agonist concentration effect curves were fit by non-linear regression to obtain Emax and EC50 values; antagonist inhibition of agonist-stimulated [^35S]GTPγS binding was analyzed by Hill analysis and AD50 values were corrected to Ki values using the Cheng-Prusoff equation. All analyses were using Prism 4.0.
Herein is reported the characterization of this novel molecular probe in for its binding affinity, Ca^2+ flux functional activity, and HIV-1 inhibition potency.

CCR5 [6] = test: Flow cytometry of CCR5 immunofluorescence in HIV-1 infected primary human astrocytes; assay type: cell-based; conditions: vs uninfected
Method: MOR and CCR5 immunoreactivity were detected by direct immunofluorescence in astroglial cells by flow cytometric analysis. Cells were washed in phosphate-buffered saline (PBS)-0.1% bovine serum albumin (BSA) buffer and incubated with primary MOR antibody followed by a secondary antibody conjugated to allophycocyanin (APC) (Biolegend, Inc; catalog #408001) and Alexa Fluor® 488 conjugated anti-mouse CD195 (CCR5) antibody (Biolegend, Inc; catalog #107008) in permeabilization buffer (PBS-0.1% BSA-0.1% Triton X-100) at a 1:500 dilution. Fluorescence was measured from 10,000 gated cells per treatment in each experiment using a FACSCanto II flow cytometer (BD Biosciences, San Jose, Calif.). Auto-fluorescence was compensated by setting the detector voltage to the minimum level that discriminates between auto-fluorescence and specific immunofluorescence in both negative and positive controls. Isotype control antibodies were used to define settings in histogram plot analyses.
We quantitatively analyzed the effect of MVC and the bivalent compound on CCR5 and MOR expression levels in virally infected astrocytes by flow cytometry. […] Approximately 20,000 events were analyzed per treatment condition in each experiment and size discrimination was used as a crude method for viability determination.

CCR5 (Homo sapiens (Human), UniProt P51681), sequence (P51681 whole entry, the tested form may be a part): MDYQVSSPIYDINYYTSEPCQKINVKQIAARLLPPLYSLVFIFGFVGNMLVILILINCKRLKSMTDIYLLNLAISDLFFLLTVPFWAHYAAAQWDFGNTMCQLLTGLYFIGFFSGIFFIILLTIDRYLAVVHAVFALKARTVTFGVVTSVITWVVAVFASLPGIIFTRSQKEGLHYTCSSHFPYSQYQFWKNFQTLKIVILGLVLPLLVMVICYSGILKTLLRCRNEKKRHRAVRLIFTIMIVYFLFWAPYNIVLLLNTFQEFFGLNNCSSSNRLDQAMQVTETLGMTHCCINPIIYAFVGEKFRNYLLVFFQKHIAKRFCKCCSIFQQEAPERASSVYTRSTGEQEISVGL

Work on `Cc1nnc(C(C)C)n1C1CC2CCC(C1)N2CCC(NC(=O)C1CCC(F)(F)CC1)c1ccc(N)cc1` (stereo not shown) yielded a melting point of 109 to 110 °C.

In the case of `Cc1nnc(C(C)C)n1C1C[C@H]2CC[C@@H](C1)N2CC[C@H](NC(=O)C1CCC(F)(F)CC1)c1ccccc1` (stereo in doubt) [Maraviroc, reference compound], the “effect on cell fusion” value [1] is reported as “significantly lowered cell fusion”, the “amplification of cell fusion inhibition when morphine present” value ([1]; morphine 300 nM) is reported as “not amplified” and the “effect on viral entry / Tat production, Example 4” value [2] is reported as “considerably inhibited viral entry”. The “effect on virus invasion (Tat expression), Example 3” value [2] was “virus invasion is decreased”, the astrocyte viability (human astrocytes; 100 nM, HIV-1 ± morphine, 24 h) was “not significantly different” and the “toxicity in the astrocytes, cytotoxicity assays (not shown)” value (human astrocytes; Example 3) was “neither maraviroc nor 1 had any toxicity”. For the same compound, the “toxicity to the cells at higher concentration” value (human astrocytes; concentration higher than 100 nM) was “increased toxicity to the cells”.

For `O=C1CC[C@@]2(O)[C@H]3Cc4ccc(O)c5c4[C@@]2(CCN3CC2CC2)[C@H]1O5` [Naltrexone, reference compound], the “effect on viral entry / Tat production, Example 4” value [2] was “did not show significant effect” and the “effect on virus invasion (Tat expression), Example 3” value [2] was “no effect on virus invasion”.

In the case of `Cc1nnc(C(C)C)n1C1CC2CCC(C1)N2CC[C@H](NC(=O)C1CCC(F)(F)CC1)c1cccc(NC(=O)COCC(=O)NCCCCCCCNC(=O)COCC(=O)N[C@@H]2CC[C@@]3(O)[C@H]4Cc5ccc(O)c6c5[C@@]3(CCN4CC3CC3)[C@H]2O6)c1` (stereo partly shown) [compound 2], the “fold loss in CCR5 antagonist activity compared to maraviroc” value (CCR5 [3]) is reported as 800 fold, the IC50 (CCR5 [3]; cells stimulated with RANTES) is reported as 14 ± 0.345 µM and the “effect on cell fusion” value [1] is reported as “significantly lowered cell fusion”. For the same compound, the “amplification of cell fusion inhibition when morphine present” value ([1]; morphine 300 nM) was 2 fold, the IC50 (MOR [4]) was 0.0174 ± 0.00574 µM and the IC50 (MOR [5]; DAMGO stimulated, hMOR-CHO Gqi5, read-out: Ca2+ inhibition IC50 ± SEM) was 0.0378 ± 0.0044 µM. For the same compound, the “agonism in Ca2+ mobilization assay” value (MOR [5]; hMOR-CHO Gqi5, data not shown) was “No agonism”, the Ki (mu opioid receptor (MOR); Example 1, read-out: binding affinity to the mu opioid receptor, Ki) was 0.00918 ± 0.00344 µM and the Ki (mu opioid receptor (MOR); mean of three experiments, read-out: Radioligand binding Ki ± SEM) was 0.0092 ± 0.0034 µM.

For `CN1CC[C@]23c4c5ccc(O)c4O[C@H]2[C@@H](O)C=C[C@H]3[C@H]1C5` [morphine, reference compound], the “effect of morphine on cell fusion” value ([1]; morphine 300 nM, +CD4, vs +CD4 alone) was “significant increase”, the “fold increase in Tat expression after infection with R5 in combination with morphine” value ([2]; morphine 500 nM, vs uninfected) was roughly 2.7 fold and the “fold increase in CCR5 expression levels, HIV-1R5 in combination with morphine” value (CCR5 [6]) was 3.3 fold.
